For one assay, the target named is T1, Helios (Homo sapiens, UniProt Q96SW2+Q9UKS7).
T1 construct: fluorescently labelled antibodies against Helios and Ikaros; endogenous in cells; host or cells: Jurkat cells
The assay is described as follows: Helios Cellular Degradation Assay (flow cytometry, Helios-PE antibody staining, 72 h). The format is cell-based. Conditions: for Dmax: Jurkat, read-out: Helios Dmax. The procedure:
(§1) Helios Cellular Degradation Assay
(§2) Jurkat cells were plated at 80,000 cells/well in 40 μL RPMI+10% FBS in a 384 well cell culture plate prior to using acoustic dispensing technology for adding compound of interest. Cell cultures were incubated for 72 h at 37° C. and 5% CO2. In order to facilitate analysis, cell cultures were spun down at 200 rpm for 5 min and the supernatant was discarded. After shaking the plate to dislodge the cell pellet, cells were resuspended in 50 μL of Fixation Buffer (eBioScience FoxP3 buffer set 0000) for 60 min at room temperature. After centrifuging and discarding the supernatant, cells were permeabilized with 50 μL of Permeabilization buffer (eBioScience FoxP3 buffer set 00-5523-00) for 10 min at room temperature. Following permeabilization, cells were spun down and the supernatant was replaced with 20 μL fluorescently labelled antibodies against Helios and Ikaros or corresponding Isotype controls in 1× Permeabilization buffer (Ikaros-Alexa488 [Biolegend, Cat #368408, 1:50], Helios-PE [CST, Cat #29360, 1:50]) and staining reactions were incubated for 1 h at room temperature; protected from light. Subsequently, 30 μL of 1× Permeabilization buffer was added prior to centrifuging the cells and discarding the supernatant. Stained cells were resuspended in 25 μL of flow cytometry staining buffer (PBS+0.2% BSA) and analyzed using an Intellicyt Ique Plus flow cytometer.
as §2, with “00-5523-00)” for “0000)”
For orientation: A flow cytometer gives signals particle by particle.

A further assay addresses T2, Ikaros (Homo sapiens, UniProt Q13422).
T2 construct: fluorescently labelled antibodies against Helios and Ikaros; endogenous in cells; host or cells: Jurkat cells
The assay is described as follows: Helios Cellular Degradation Assay, Ikaros readout (flow cytometry, Ikaros-Alexa488 antibody staining, 72 h). It is filed as cell-based. Conditions: for Dmax: Jurkat, read-out: Ikaros Dmax. The protocol:
as §1, §2
as §2, with “00-5523-00)” for “0000)”

[1] abbreviates: Jurkat cells, 72 h incubation, flow cytometry.

The values below come from patent publication US11548870B2, “Compounds useful as inhibitors of helios protein” (Bristol-Myers Squibb Company, priority 2019, dated 2023).

The structures appear in SMILES notation. “And” between values parts separate entries of the source, which are not always exact repeats. Equal values may be shown once. Read-outs that look alike come from different tables or passages of the source.

T2 sequence (Q96SW2 whole entry partner): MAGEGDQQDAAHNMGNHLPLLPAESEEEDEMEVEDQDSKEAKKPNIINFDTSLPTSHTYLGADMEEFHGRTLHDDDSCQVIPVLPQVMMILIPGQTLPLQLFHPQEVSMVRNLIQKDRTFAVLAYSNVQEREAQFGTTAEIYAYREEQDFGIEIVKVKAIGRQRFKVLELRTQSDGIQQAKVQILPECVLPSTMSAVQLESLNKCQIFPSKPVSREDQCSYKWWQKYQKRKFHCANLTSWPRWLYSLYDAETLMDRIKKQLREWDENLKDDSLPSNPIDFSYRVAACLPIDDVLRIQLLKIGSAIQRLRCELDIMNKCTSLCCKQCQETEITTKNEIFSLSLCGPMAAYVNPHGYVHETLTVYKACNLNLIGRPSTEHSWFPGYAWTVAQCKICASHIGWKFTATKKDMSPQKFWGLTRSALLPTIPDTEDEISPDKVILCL
T2 sequence (Q16531 whole entry partner): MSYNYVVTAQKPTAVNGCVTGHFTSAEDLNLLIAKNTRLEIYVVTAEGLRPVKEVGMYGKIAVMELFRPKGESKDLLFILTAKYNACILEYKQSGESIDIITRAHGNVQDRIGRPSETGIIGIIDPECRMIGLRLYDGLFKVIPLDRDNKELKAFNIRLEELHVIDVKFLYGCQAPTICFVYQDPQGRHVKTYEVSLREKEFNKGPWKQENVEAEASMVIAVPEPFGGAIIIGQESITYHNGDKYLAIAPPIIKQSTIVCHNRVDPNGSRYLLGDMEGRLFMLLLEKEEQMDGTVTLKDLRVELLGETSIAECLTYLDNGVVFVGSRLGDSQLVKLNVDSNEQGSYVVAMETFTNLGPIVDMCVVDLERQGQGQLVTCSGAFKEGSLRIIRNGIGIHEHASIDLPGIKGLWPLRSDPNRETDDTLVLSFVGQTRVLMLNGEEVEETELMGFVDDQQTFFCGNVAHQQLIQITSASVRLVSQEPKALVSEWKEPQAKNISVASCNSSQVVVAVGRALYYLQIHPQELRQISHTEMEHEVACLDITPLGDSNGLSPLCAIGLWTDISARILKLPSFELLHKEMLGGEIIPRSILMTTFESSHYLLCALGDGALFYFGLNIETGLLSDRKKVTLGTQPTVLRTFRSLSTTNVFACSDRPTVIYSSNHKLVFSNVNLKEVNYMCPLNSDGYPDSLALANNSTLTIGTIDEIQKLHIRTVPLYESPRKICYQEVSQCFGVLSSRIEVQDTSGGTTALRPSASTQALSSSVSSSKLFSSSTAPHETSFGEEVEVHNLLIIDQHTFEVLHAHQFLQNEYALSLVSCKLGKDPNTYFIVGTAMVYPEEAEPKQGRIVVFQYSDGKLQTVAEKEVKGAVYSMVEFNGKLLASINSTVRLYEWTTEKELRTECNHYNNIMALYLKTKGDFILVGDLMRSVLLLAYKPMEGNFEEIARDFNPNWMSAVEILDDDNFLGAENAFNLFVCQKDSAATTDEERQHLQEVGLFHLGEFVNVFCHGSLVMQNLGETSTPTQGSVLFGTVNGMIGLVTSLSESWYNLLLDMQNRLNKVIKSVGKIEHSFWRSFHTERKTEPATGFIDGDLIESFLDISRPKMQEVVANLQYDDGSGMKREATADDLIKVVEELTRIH
T2 sequence (Q13422 whole entry): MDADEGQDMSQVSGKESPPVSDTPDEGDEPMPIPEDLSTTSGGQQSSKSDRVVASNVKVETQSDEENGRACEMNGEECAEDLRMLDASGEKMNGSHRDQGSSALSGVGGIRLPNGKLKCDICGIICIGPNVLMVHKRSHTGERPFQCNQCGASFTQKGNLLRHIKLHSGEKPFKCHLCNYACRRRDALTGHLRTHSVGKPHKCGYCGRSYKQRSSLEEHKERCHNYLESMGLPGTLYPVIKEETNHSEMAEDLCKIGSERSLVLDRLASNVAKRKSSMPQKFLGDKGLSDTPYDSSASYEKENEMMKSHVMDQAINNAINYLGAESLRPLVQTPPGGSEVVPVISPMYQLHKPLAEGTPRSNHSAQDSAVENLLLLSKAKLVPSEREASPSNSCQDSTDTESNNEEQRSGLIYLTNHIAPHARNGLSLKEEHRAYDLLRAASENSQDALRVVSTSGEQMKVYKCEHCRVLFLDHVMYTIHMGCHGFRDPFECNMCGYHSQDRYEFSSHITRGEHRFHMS
T1 sequence (Q9UKS7 whole entry): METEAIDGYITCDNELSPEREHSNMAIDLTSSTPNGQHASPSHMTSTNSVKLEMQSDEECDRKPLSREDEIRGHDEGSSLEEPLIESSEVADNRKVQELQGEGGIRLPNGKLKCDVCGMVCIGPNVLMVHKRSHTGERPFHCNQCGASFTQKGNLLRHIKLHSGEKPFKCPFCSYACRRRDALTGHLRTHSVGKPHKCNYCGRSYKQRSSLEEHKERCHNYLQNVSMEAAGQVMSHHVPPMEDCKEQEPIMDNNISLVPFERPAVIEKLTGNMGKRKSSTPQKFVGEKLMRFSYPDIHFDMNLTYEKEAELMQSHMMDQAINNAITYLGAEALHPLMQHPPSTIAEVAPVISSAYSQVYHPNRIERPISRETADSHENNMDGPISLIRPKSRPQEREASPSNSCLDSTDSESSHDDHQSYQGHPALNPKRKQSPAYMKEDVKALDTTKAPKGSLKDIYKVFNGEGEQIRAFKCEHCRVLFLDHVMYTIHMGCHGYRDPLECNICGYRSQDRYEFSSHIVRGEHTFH
T1 sequence (Q96SW2 whole entry): as the sequence (Q96SW2 whole entry partner) above
T1 sequence (Q16531 whole entry partner): as the sequence (Q16531 whole entry partner) above

On to `CN(Cc1cccnc1)Cc1ccnc(-c2ccc3c(c2)CN(C2CCC(=O)NC2=O)C3=O)c1` (stereo not shown) [Example 159, 3-(5-(4-((methyl(pyridin-3-ylmethyl)amino)methyl)pyridin-2-yl)-1-oxoisoindolin-2-yl)piperidine-2,6-dione], for which the DC50 (usually the concentration at which degradation of the target reaches its halfway point) at Helios (setting [1]) is 136 nM; on Ikaros (setting [1]), above 10000 nM. The Dmax (as a rule, the largest share of the target that was removed) worked out at 76% at Helios (setting [1]) and 25% at Ikaros (setting [1]).

Take `Cc1cccc(CNCc2ccnc(-c3ccc4c(c3)CN(C3CCC(=O)NC3=O)C4=O)c2)c1` (stereo not shown) [Example 57, 3-(5-(4-(((3-methylbenzyl)amino)methyl)pyridin-2-yl)-1-oxoisoindolin-2-yl)piperidine-2,6-dione]: the 50% degradation concentration (DC50) on Helios (setting [1]) and on Ikaros (setting [1]) was above 10000 nM in each case. Besides, the Dmax is 32% on Helios (setting [1]) and 0% at Ikaros (setting [1]).

As to `O=C1CCC(N2Cc3cc(-c4cc(CN5CCC5c5ccccc5)ccn4)ccc3C2=O)C(=O)N1` (single isomer, unassigned) [Example 204, 3-(1-oxo-5-(4-((2-phenylazetidin-1-yl)methyl)pyridin-2-yl)isoindolin-2-yl)piperidine-2,6-dione], at Helios (setting [1]), the DC50 is above 10000 nM; the “Helios Dmax” value is 2.42% and 2.4%. In addition, on Ikaros (setting [1]), the half-maximal degradation concentration (DC50) was above 10000 nM.

Regarding `CCN(C)Cc1ccnc(-c2ccc3c(c2)CN(C2CCC(=O)NC2=O)C3=O)c1` (stereo not shown) [Example 5], at Helios (setting [1]), the 50% degradation concentration (DC50) came out at 44 nM and the “Helios Dmax” value is listed as 90%. Besides, on Ikaros (setting [1]), the DC50 was above 10000 nM and the “Ikaros Dmax” value worked out at 5%.

Regarding `O=C1CCC(N2Cc3cc(-c4cc(CN5CCC(n6c(=O)[nH]c7ccccc76)CC5)ccn4)ccc3C2=O)C(=O)N1` (stereo not shown) [Example 11, 3-(1-oxo-5-(4-((4-(2-oxo-2,3-dihydro-1H-benzo[d]imidazol-1-yl)piperidin-1-yl)methyl)pyridin-2-yl)isoindolin-2-yl)piperidine-2,6-dione], the DC50 at Helios (setting [1]) is 573 nM; at Ikaros (setting [1]) it was above 10000 nM. Further, the greatest degradation seen (Dmax) on Helios was 59%; at Ikaros (setting [1]), 7%.

In the case of `N#CCNCc1ccnc(-c2ccc3c(c2)CN(C2CCC(=O)NC2=O)C3=O)c1` (stereo not shown) [Example 99, 2-(((2-(2-(2,6-dioxopiperidin-3-yl)-1-oxoisoindolin-5-yl)pyridin-4-yl)methyl)amino)acetonitrile], the DC50 on Helios (setting [1]) is 419 nM; at Ikaros (setting [1]) it was above 10000 nM. Further, the Dmax was determined as 65% on Helios (setting [1]) and 6% at Ikaros (setting [1]).

In the case of `C[C@H]1CCN(Cc2ccnc(-c3ccc4c(c3)CN(C3CCC(=O)NC3=O)C4=O)c2)C1` (stereo partly drawn) [Example 72, 3-(5-(4-(((S)-3-methylpyrrolidin-1-yl)methyl)pyridin-2-yl)-1-oxoisoindolin-2-yl) piperidine-2,6-dione], the values for the half-maximal degradation concentration (DC50) at Helios (setting [1]) and on Ikaros (setting [1]) were 13 nM and above 10000 nM, respectively. For the same molecule, the Dmax on Helios (setting [1]) was 90%; on Ikaros (setting [1]), 13%.

In the case of `CN(Cc1ccc(S(C)(=O)=O)cc1)Cc1ccnc(-c2ccc3c(c2)CN(C2CCC(=O)NC2=O)C3=O)c1` (stereo not shown) [Example 157, 3-(5-(4-((methyl(4-(methylsulfonyl)benzyl)amino)methyl)pyridin-2-yl)-1-oxoisoindolin-2-yl)piperidine-2,6-dione], the DC50 on Helios (setting [1]) and on Ikaros (setting [1]) was above 10000 nM each time. Also, the Dmax on Helios (setting [1]) was found to be 38%; at Ikaros (setting [1]) it was 8%.

On to `O=C1CCC(N2Cc3cc(-c4cc(CNC5CCC5)ccn4)ccc3C2=O)C(=O)N1` (stereo not shown) [Example 108, 3-(5-(4-((cyclobutylamino)methyl)pyridin-2-yl)-1-oxoisoindolin-2-yl)piperidine-2,6-dione], for which, at Helios (setting [1]), the 50% degradation concentration (DC50) was 45 nM and the greatest degradation seen (Dmax) was found to be 84%. Besides, on Ikaros (setting [1]), the DC50 was above 10000 nM and the greatest degradation seen (Dmax) worked out at 15%.

In the case of `O=C1CN(Cc2ccnc(-c3ccc4c(c3)CN(C3CCC(=O)NC3=O)C4=O)c2)CCN1` (stereo not shown) [Example 37, 3-(1-oxo-5-(4-((3-oxopiperazin-1-yl)methyl)pyridin-2-yl)isoindolin-2-yl)piperidine-2,6-dione], at Helios (setting [1]), the DC50 was above 10000 nM and the maximal degradation (Dmax) turned out to be 24%. At Ikaros (setting [1]), the half-maximal degradation concentration (DC50) was above 10000 nM and the Dmax was 10%.

`CC(=O)N1CCN(Cc2ccnc(-c3ccc4c(c3)CN(C3CCC(=O)NC3=O)C4=O)c2)CC1` (stereo not shown) [Example 28, 3-(5-(4-((4-acetylpiperazin-1-yl)methyl)pyridin-2-yl)-1-oxoisoindolin-2-yl)piperidine-2,6-dione]: at Helios (setting [1]), the DC50 is above 10000 nM and the Dmax amounted to 17%. Further, on Ikaros (setting [1]), the half-maximal degradation concentration (DC50) was above 10000 nM and the Dmax was 13%.

For `CCN(C)Cc1ccnc(-c2ccc3c(c2)CN(C2CCC(=O)NC2=O)C3=O)c1` (stereo not shown) [Example 4, 3-(5-(4-((ethyl(methyl)amino)methyl)pyridin-2-yl)-1-oxoisoindolin-2-yl)piperidine-2,6-dione], on Helios (setting [1]), the DC50 worked out at 96 nM and the maximal degradation (Dmax) is 84%. Moreover, on Ikaros (setting [1]), the half-maximal degradation concentration (DC50) was above 10000 nM and the maximal degradation (Dmax) was 8%.

Turning to `O=C1CCC(N2Cc3cc(-c4cc(CN5CCOCC5)ccn4)ccc3C2=O)C(=O)N1` (stereo not shown) [Example 166, 3-(5-{4-[(Morpholin-4-yl)methyl]pyridin-2-yl}-1-oxo-2,3-dihydro-1H-isoindol-2-yl) piperidine-2,6-dione], at Helios (setting [1]), it took 7860 nM to reach half-maximal degradation (DC50) and the Dmax is 52%. Moreover, on Ikaros (setting [1]), the 50% degradation concentration (DC50) is above 10000 nM and the Dmax was found to be 7%.

Consider `O=C1CCC(N2Cc3cc(-c4cc(CNCCc5nc6ccccc6s5)ccn4)ccc3C2=O)C(=O)N1` (stereo not shown) [Example 106, 3-(5-(4-(((2-(benzo[d]thiazol-2-yl)ethyl)amino)methyl)pyridin-2-yl)-1-oxoisoindolin-2-yl)piperidine-2,6-dione], for which, on Helios (setting [1]), it took 72 nM to reach half-maximal degradation (DC50) and the maximal degradation (Dmax) turned out to be 79%. Further, on Ikaros (setting [1]), the DC50 is above 10000 nM and the Dmax amounted to 12%.

As to `COc1ccc(CN(C)Cc2ccnc(-c3ccc4c(c3)CN(C3CCC(=O)NC3=O)C4=O)c2)cn1` (stereo not shown) [Example 168, 3-{5-[4-({[(6-Methoxypyridin-3-yl)methyl](methyl)amino}methyl)pyridin-2-yl]-1-oxo-2,3-dihydro-1H-isoindol-2-yl}piperidine-2,6-dione], the DC50 is 309 nM on Helios (setting [1]) and above 10000 nM on Ikaros (setting [1]). Also, the Dmax on Helios (setting [1]) came out at 77%; on Ikaros (setting [1]) it was 20%.

Turning to `CN(Cc1cccc(C(F)(F)F)c1)Cc1ccnc(-c2ccc3c(c2)CN(C2CCC(=O)NC2=O)C3=O)c1` (stereo not shown) [Example 148, 3-(5-(4-((methyl(3-(trifluoromethyl)benzyl)amino)methyl)pyridin-2-yl)-1-oxoisoindolin-2-yl)piperidine-2,6-dione], the DC50 is 238 nM at Helios (setting [1]) and above 10000 nM on Ikaros (setting [1]). Besides, the Dmax on Helios was found to be 75%; on Ikaros, 9%.

Consider `O=C1CCC(N2Cc3cc(-c4cc(CN5CCCC(c6ccccc6)C5)ccn4)ccc3C2=O)C(=O)N1` (stereo not shown) [Example 143, 3-(1-oxo-5-(4-((3-phenylpiperidin-1-yl)methyl)pyridin-2-yl)isoindolin-2-yl)piperidine-2,6-dione], for which, at Helios (setting [1]), the DC50 is 40 nM and the maximal degradation (Dmax) came to 62%. For the same molecule, on Ikaros (setting [1]), the half-maximal degradation concentration (DC50) was above 10000 nM and the maximal degradation (Dmax) was 1%.

`O=C1CCC(N2Cc3cc(-c4cc(CN5CCC5c5ccccc5)ccn4)ccc3C2=O)C(=O)N1` (stereo not shown) [Example 76, 3-(1-oxo-5-(4-((2-phenylazetidin-1-yl)methyl)pyridin-2-yl)isoindolin-2-yl) piperidine-2,6-dione]: on Helios (setting [1]), the 50% degradation concentration (DC50) came out at 6 nM and the Dmax was determined as 98%. For the same molecule, on Ikaros (setting [1]), the half-maximal degradation concentration (DC50) is above 10000 nM and the maximal degradation (Dmax) is 12%.

With `C[C@@H](NCc1ccnc(-c2ccc3c(c2)CN(C2CCC(=O)NC2=O)C3=O)c1)c1ccccc1` (stereo partly drawn) [Example 122, 3-(1-oxo-5-(4-((((R)-1-phenylethyl)amino)methyl)pyridin-2-yl)isoindolin-2-yl)piperidine-2,6-dione], the half-maximal degradation concentration (DC50) is 14 nM at Helios (setting [1]) and above 10000 nM on Ikaros (setting [1]). The maximal degradation (Dmax) at Helios (setting [1]) came to 88%; at Ikaros (setting [1]), 4%.

As to `COCCN(C)Cc1ccnc(-c2ccc3c(c2)CN(C2CCC(=O)NC2=O)C3=O)c1` (stereo not shown) [Example 7, 3-(5-(4-(((2-methoxyethyl)(methyl)amino)methyl)pyridin-2-yl)-1-oxoisoindolin-2-yl)piperidine-2,6-dione], the DC50 is 138 nM on Helios (setting [1]) and above 10000 nM on Ikaros (setting [1]). Also, the maximal degradation (Dmax) amounted to 85% on Helios (setting [1]) and 20% at Ikaros (setting [1]).
